# In US8569316B2, “Pyrimido [5,4-D] pyrimidine derivatives for the inhibition of tyrosine kinases” (Boehringer Ingelheim International GmbH, priority 2009, dated 2013):
# Target: B-Raf (V600E)-kinase (Homo sapiens (Human), UniProt P15056, V600E)
# Test: Kinase test B-Raf (V600E)
# Type: biochemical
# Conditions: 250 μM ATP, biotinylated MEK1 substrate
# Procedure: In a dilution series 10 μL of test substance solution are placed in a multiwell plate. The dilution series is selected so that generally a range of concentrations of 2 μM to 0.128 nM or 0.017 nM is covered. If necessary the initial concentration of 2 μM is changed to 50 μM, 10 μM or 0.4 μM or 0.2857 μM and further dilution is carried out accordingly. The final concentration of DMSO is 5%. 10 μL of the B-Raf (V600E)-kinase solution are pipetted in (containing 0.5 ng B-Raf (V600E)-kinase in 20 mM Tris-HCl pH 7.5, 0.1 mM EDTA, 0.1 mM EGTA, 0.286 mM sodium orthovanadate, 10% glycerol, 1 mg/mL bovine serum albumin, 1 mM dithiothreitol) and the mixture is incubated for 1 h at RT under with shaking. The kinase reaction is started by the addition of 20 μL ATP solution [final concentration: 250 μM ATP, 30 mM Tris-HCl pH 7.5, 0.02% Brij, 0.2 mM sodium orthovanadate, 10 mM magnesium acetate, phosphatase cocktail (Sigma, #P2850, dilution recommended by the manufacturer), 0.1 mM EGTA] and 10 μL MEK1 solution [containing 50 ng biotinylated MEK1 (prepared from purified MEK1 according to standard procedure, e.g. with EZ-Link Sulpho-NHS-LC-Biotin reagent, Pierce, #21335) in 50 mM Hepes pH 7.5, 150 mM NaCl, 10% glycerol, 0.02% Brij-35, 0.2 mM PMSF, 0.2 mM benzamidine] and carried out for 60 min at RT with constant shaking. The reaction is stopped by the addition of 12 μL of a 100 mM EDTA solution and incubation is continued for a further 5 min. 55 μL of the reaction solution are transferred into a streptavidin-coated plate (e.g. Streptawell HighBond, Roche, #11989685001) and shaken gently for 1 h at RT, in order to bind biotinylated MEK1 to the plate. After elimination of the liquid the plate is washed five times with 200 μL of 1×PBS and 100 μL solution of primary antibody plus europium-labelled secondary antibody [Anti Phospho-MEK (Ser217/221), Cell Signaling, #9121 and Eu-N1 labeled goat-anti-rabbit antibody, Perkin Elmer, #AD0105], the primary antibody is diluted 1:2000 and the secondary antibody is diluted to 0.4-0.5 μg/mL in Delfia Assay Buffer (Perkin Elmer, #1244-111). After 1 h shaking at RT the solution is poured away and washed five times with 200 μL Delfia Wash Buffer (Perkin Elmer, #4010-0010/#1244-114). After the addition of 200 μL Enhancement Solution (Perkin Elmer, #4001-0010/#1244-105) the mixture is shaken for 10 min at RT and then measured in a Wallac Victor using the program “Delfia Time Resolved Fluorescence (Europium)”. IC50 values are obtained from these dosage-activity curves using a software program (GraphPadPrizm).
# Chain of B-Raf (V600E)-kinase (P15056 whole entry V600E): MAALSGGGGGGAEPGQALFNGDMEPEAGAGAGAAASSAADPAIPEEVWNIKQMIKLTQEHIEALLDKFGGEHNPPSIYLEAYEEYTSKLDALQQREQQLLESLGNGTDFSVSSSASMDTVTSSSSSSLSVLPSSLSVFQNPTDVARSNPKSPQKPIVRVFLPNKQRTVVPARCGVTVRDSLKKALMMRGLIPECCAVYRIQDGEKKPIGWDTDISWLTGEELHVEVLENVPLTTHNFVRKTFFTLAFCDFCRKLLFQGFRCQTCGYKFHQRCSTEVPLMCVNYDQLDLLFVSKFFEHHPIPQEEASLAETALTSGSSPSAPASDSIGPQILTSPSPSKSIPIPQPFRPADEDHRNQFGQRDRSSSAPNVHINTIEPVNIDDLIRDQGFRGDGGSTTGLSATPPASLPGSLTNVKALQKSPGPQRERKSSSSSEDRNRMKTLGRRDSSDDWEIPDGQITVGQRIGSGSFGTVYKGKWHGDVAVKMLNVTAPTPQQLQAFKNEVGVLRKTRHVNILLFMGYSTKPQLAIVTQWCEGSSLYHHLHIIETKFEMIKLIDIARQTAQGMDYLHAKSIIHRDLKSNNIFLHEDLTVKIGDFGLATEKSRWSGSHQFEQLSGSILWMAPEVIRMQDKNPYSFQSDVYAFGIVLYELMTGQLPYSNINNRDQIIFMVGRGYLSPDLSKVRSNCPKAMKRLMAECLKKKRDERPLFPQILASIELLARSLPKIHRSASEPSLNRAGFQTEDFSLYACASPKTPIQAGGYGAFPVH
row,IC50 [nM],SMILES
1,282,COc1c(NC(=O)c2ccc(C)c(Nc3ncnc4ccc(C5=CCNC5)nc34)c2)cc(C(C)(C)C)cc1NS(C)(=O)=O [III-38]
2,12,Cc1ccc(C(=O)Nc2cc(C(C)(C)C)on2)cc1Nc1ncnc2ccc(N3CCN(CC4CCN(C)CC4)CC3)nc12 [III-12]
3,583,CCCN1CCC(Cc2ccc3ncnc(Nc4cc(C(=O)Nc5cc(C(C)(C)C)cc(NS(C)(=O)=O)c5OC)ccc4C)c3n2)CC1 [III-48]
4,5,Cc1ccc(C(=O)Nc2cc(N3CCCN(C)CC3)cc(C(F)(F)F)c2)cc1Nc1ncnc2ccc(N3CCOCC3)nc12 [III-8]
5,5,Cc1ccc(NC(=O)c2cccc(C(C)(C)C#N)c2)cc1Nc1ncnc2ccc(N[C@H]3CCOC3)nc12 [IV-5]
6,25,COc1c(NC(=O)c2ccc(C)c(Nc3ncnc4ccc(N5CC[C@@H](F)C5)nc34)c2)cc(C(C)(C)C)cc1NS(C)(=O)=O [III-22]
7,11,Cc1ccc(NC(=O)c2cccc(C(C)(C)C#N)c2)cc1Nc1ncnc2ccc(N3CC[C@H](F)C3)nc12 [IV-4]
8,508,CCN1CCN(c2ccc3ncnc(Nc4cc(C(=O)Nc5cc(C(C)(C)C)cc(NS(C)(=O)=O)c5OC)ccc4C)c3n2)CC1 [III-23]
9,4,Cc1ccc(C(=O)Nc2cc(N3CCN(C)CC3)cc(C(F)(F)F)c2)cc1Nc1ncnc2ccc(N3CCOCC3)nc12 [III-7]
10,11,COc1ccc(NC(=O)c2ccc(C)c(Nc3ncnc4ccc(N5CCOCC5)nc34)c2)cc1C(F)(F)F [III-1]
11,431,COc1c(NC(=O)c2ccc(C)c(Nc3ncnc4ccc(C)nc34)c2)cc(C(C)(C)C)cc1NS(C)(=O)=O [III-28]
12,269,COCCN1CCN(c2ccc3ncnc(Sc4cc(C(=O)Nc5cc(C(C)(C)C)on5)ccc4C)c3n2)CC1 [III-54]
13,7,Cc1ccc(C(=O)Nc2cc(C(C)(C)C)n[nH]2)cc1Nc1ncnc2ccc(N3CCOCC3)nc12 [III-5]
14,224,COc1ccc(NC(=O)c2ccc(C)c(Nc3ncnc4cnc(N5CCN(C)CC5)cc34)c2)cc1C(F)(F)F [I-2]
15,26,COc1ccc(NC(=O)c2ccc(C)c(Nc3ncnc4ccc(N5CCN(CC6CCN(C)CC6)CC5)nc34)c2)cc1C(F)(F)F [III-15]
16,344,COc1c(NC(=O)c2ccc(C)c(Nc3ncnc4ccc(C5=CCN(C)CC5)nc34)c2)cc(C(C)(C)C)cc1NS(C)(=O)=O [III-30]
17,315,COCCN1CCC(c2ccc3ncnc(Nc4cc(C(=O)Nc5cc(C(C)(C)C)cc(NS(C)(=O)=O)c5OC)ccc4C)c3n2)C1 (stereo not shown) [III-41]
18,101,COc1c(NC(=O)c2ccc(C)c(Nc3ncnc4ccc(C5=CCNCC5)nc34)c2)cc(C(C)(C)C)cc1NS(C)(=O)=O [III-27]
19,638,COc1c(NC(=O)c2ccc(C)c(Nc3ncnc4ccc(N5CCN(CCN6CCOCC6)CC5)nc34)c2)cc(C(C)(C)C)cc1NS(C)(=O)=O [III-25]
20,553,COc1c(NC(=O)c2ccc(C)c(Nc3ncnc4ccc(CC5CCN(C(C)C)CC5)nc34)c2)cc(C(C)(C)C)cc1NS(C)(=O)=O [III-46]
21,57,COc1ccc(NC(=O)c2ccc(C)c(Nc3ncnc4ccc(N5CCN(C)CC5)nc34)c2)cc1C(F)(F)F [III-13]
22,106,COc1ccc(NC(=O)c2ccc(C)c(Nc3ncnc4cnc(N5CCOCC5)cc34)c2)cc1C(F)(F)F [I-1]
23,30,COc1c(NC(=O)c2ccc(C)c(Nc3ncnc4ccc(NC5CCOC5)nc34)c2)cc(C(C)(C)C)cc1NS(C)(=O)=O (stereo not shown) [III-21]
24,8,Cc1ccc(NC(=O)c2cccc(C(C)(C)C#N)c2)cc1Nc1ncnc2ccc(N3CCN(C)CC3)nc12 [IV-2]
25,151,COc1c(NC(=O)c2ccc(C)c(Nc3ncnc4ccc(C5CCN(C)CC5)nc34)c2)cc(C(C)(C)C)cc1NS(C)(=O)=O [III-32]
26,9,Cc1ccc(C(=O)Nc2cc(C(C)(C)C)on2)cc1Nc1ncnc2ccc(N(C)C)nc12 [III-17]
27,70,COc1c(NC(=O)c2ccc(C)c(Nc3ncnc4ccc(C5CCNCC5)nc34)c2)cc(C(C)(C)C)cc1NS(C)(=O)=O [III-31]
28,229,COc1c(NC(=O)c2ccc(C)c(Nc3ncnc4ccc(C5CCCNC5)nc34)c2)cc(C(C)(C)C)cc1NS(C)(=O)=O (stereo not shown) [III-42]

row,IC50 [nM],SMILES
1,23,Cc1ccc(C(=O)Nc2cc(C(C)(C)C)on2)cc1Nc1ncnc2ccc(C3=CCNCC3)nc12 [III-51]
2,286,COc1c(NC(=O)c2ccc(C)c(Nc3ncnc4ccc(C5CCN(C)C5)nc34)c2)cc(C(C)(C)C)cc1NS(C)(=O)=O (stereo not shown) [III-40]
3,225,COc1c(NC(=O)c2ccc(C)c(Nc3ncnc4ccc(N5CCN(C)CC5)nc34)c2)cc(C(C)(C)C)cc1NS(C)(=O)=O [III-18]
4,213,COc1c(NC(=O)c2ccc(C)c(Nc3ncnc4ccc(CC5CNCCOC5)nc34)c2)cc(C(C)(C)C)cc1NS(C)(=O)=O (stereo not shown) [III-43]
5,4,Cc1ccc(NC(=O)c2cccc(C(C)(C)C#N)c2)cc1Nc1ncnc2ccc(N3CCOCC3)nc12 [IV-1]
6,476,COCCN1CCN(c2ccc3ncnc(Nc4cc(C(=O)Nc5cc(C(C)(C)C)cc(NS(C)(=O)=O)c5OC)ccc4C)c3n2)CC1 [III-19]
7,4,Cc1ccc(C(=O)Nc2cc(CN3CCCC3)cc(C(F)(F)F)c2)cc1Nc1ncnc2ccc(N3CCOCC3)nc12 [III-9]
8,479,CCOCCN1CCC(Cc2ccc3ncnc(Nc4cc(C(=O)Nc5cc(C(C)(C)C)cc(NS(C)(=O)=O)c5OC)ccc4C)c3n2)CC1 [III-50]
9,185,CCN1CCC(c2ccc3ncnc(Nc4cc(C(=O)Nc5cc(C(C)(C)C)cc(NS(C)(=O)=O)c5OC)ccc4C)c3n2)CC1 [III-33]
10,15,Cc1ccc(C(=O)Nc2cc(C(C)(C)C)nn2C)cc1Nc1ncnc2ccc(N3CCOCC3)nc12 [III-6]
11,190,COCCN1CCN(c2ccc3ncnc(Sc4cc(C(=O)Nc5cc(N6CCN(C)CC6)cc(C(F)(F)F)c5)ccc4C)c3n2)CC1 [III-53]
12,257,COc1c(NC(=O)c2ccc(C)c(Nc3ncnc4ccc(C5CCN(C(C)C)CC5)nc34)c2)cc(C(C)(C)C)cc1NS(C)(=O)=O [III-34]
13,1620,COCCN1CCN(c2ccc3ncnc(Sc4cc(C(=O)Nc5cc(C(C)(C)C)cc(NS(C)(=O)=O)c5OC)ccc4C)c3n2)CC1 [III-55]
14,504,COc1c(NC(=O)c2ccc(C)c(Nc3ncnc4ccc(CC5CCN(CC6CC6)CC5)nc34)c2)cc(C(C)(C)C)cc1NS(C)(=O)=O [III-47]
15,140,COCCN1CCN(c2ccc3ncnc(Nc4cc(C(=O)Nc5ccc(OC)c(C(F)(F)F)c5)ccc4C)c3n2)CC1 [III-14]
16,496,COCCN1CCC(Cc2ccc3ncnc(Nc4cc(C(=O)Nc5cc(C(C)(C)C)cc(NS(C)(=O)=O)c5OC)ccc4C)c3n2)CC1 [III-49]
17,32,Cc1ccc(C(=O)Nc2cc(C(C)(C)C)on2)cc1Nc1ncnc2ccc(N3CCOCC3)nc12 [III-2]
18,50,COc1c(NC(=O)c2ccc(C)c(Nc3ncnc4ccc(N5CCOCC5)nc34)c2)cc(C(C)(C)C)cc1NS(C)(=O)=O [III-24]
19,288,COc1c(NC(=O)c2ccc(C)c(Nc3ncnc4ccc(C5CCN(CC6CC6)CC5)nc34)c2)cc(C(C)(C)C)cc1NS(C)(=O)=O [III-35]
20,> 1400,Cc1ccc(C(=O)N2CCOCC2)cc1Nc1ncnc2cnc(N3CCOCC3)cc12 [I-4]
21,44,COc1ccc(NC(=O)c2ccc(C)c(Nc3ncnc4ccc(N(C)C)nc34)c2)cc1C(F)(F)F [III-16]
22,364,COc1c(NC(=O)c2ccc(C)c(Nc3ncnc4ccc(CC5CCN(C)CC5)nc34)c2)cc(C(C)(C)C)cc1NS(C)(=O)=O [III-44]
23,1460,COc1c(NC(=O)c2ccc(C)c(Nc3ncnc4ccc(N5CCC(N6CCOCC6)C5)nc34)c2)cc(C(C)(C)C)cc1NS(C)(=O)=O (stereo not shown) [III-26]
24,12,Cc1ccc(C(=O)Nc2cc(C(C)(C)C)on2)cc1Nc1ncnc2ccc(N3CCN(C)CC3)nc12 [III-10]
25,295,COc1c(NC(=O)c2ccc(C)c(Nc3ncnc4ccc(C5=CCN(C(C)C)CC5)nc34)c2)cc(C(C)(C)C)cc1NS(C)(=O)=O [III-29]
26,316,COc1ccc(NC(=O)c2ccc(C)c(Nc3ncnc4cnc(N5CCCC5)cc34)c2)cc1C(F)(F)F [I-3]
27,2060,Cc1ccc(C(=O)n2nc(C(C)(C)C)cc2N)cc1Nc1ncnc2ccc(N3CCOCC3)nc12 [III-4]
